From patent publication US11040031B2, “Pyrazole derivatives as MALT1 inhibitors” (Janssen Pharmaceutica NV, priority 2018, dated 2021) come the findings set out here.

pIC50: −log10 of the molar value. Like-named read-outs stand apart in the source and are kept apart here.

Experiment [1] deals with Secretion of IL10 by TMD8 ABC-DLBCL cells. The experiment in a line: Human IL10 Mesoscale assay (TMD-8). The note with it: TMD8 cells, 24 h incubation, supernatant, MSD V-Plex, read-out: Human IL10 Mesoscale assay (TMD-8). The class given is cell-based. The procedure: NFKB signaling regulates the secretion of multiple cytokines, including IL6 and IL10. Secretion of the cytokines IL6 and IL10 by TMD8 or OCI-LY3 ABC-DLBCL cells was measured using a mesoscale assay.
Cell passage number should not exceed 30. Cells should be kept between 0.5-2.5 million cells per mL during culturing and cells should be supplemented every 2-3 days with fresh 50 µM beta-mercaptoenthanol. No beta-mercaptoethanol was used during the mesoscale assay.
DMSO control wells were used to determine the maximum signal (High Control (HC)). […] Compounds and cells were incubated for 24 h at 37° C. and 5% CO2 (assay volume is 150 μL). After 24 h of incubation 50 μL of the supernatant was transferred to a MSD plate (V-Plex Proinflammation Panel 1 (human) kit, Mesoscale (MSD)) and incubated for 2 h with vigorous shaking (600 rpm) at room temperature. Following incubation, plates were washed 3× with PBS+0.05% Tween-20 and 25 μL detection antibody solution (IL6 & IL10 antibodies in diluent 3 (MSD)) was added per well followed by 2 h of incubation with vigorous shaking (600 rpm) at room temperature. After 3× washes with PBS+0.05% Tween-20, plates were incubated with 150 μL 2× Read Buffer T and read on SECTOR imager.

The subject of experiment [2] is OCI-Ly3 ABC-DLBCL cell line. The experiment in a line: 4-day proliferation assay OCI-Ly3. The class given is cell-based. To be noted: Homo sapiens, read-out: Anti-proliferation: OCI-LY-3 IC50. The protocol:
To assess anti-proliferative effects, MALT1 inhibitor test compounds were tested in 4-day proliferation assays using three different DLBCL cell lines.
Cells should be kept between 0.5-2.5 million cells per mL during culturing and cells should be supplemented every 2-3 days with fresh 50 μM beta-mercaptoenthanol. No beta-mercaptoethanol is used during the proliferation assay. OCI-Ly7 cells were propagated in IMDM (ThermoFisher) supplemented with 10% fetal bovine serum (HyClone), 2 mM L-glutamine (Sigma Aldrich) and 50 μg/mL Gentamycin. Cell passage numbers should not exceed 30.
10,000 TMD8, 10,000 OCI-Ly3 or 2,000 OCI-Ly7 cells were seeded in 100 μL media per well and incubated for 4 days at 37° C. and 5% CO2. Cell plating numbers were chosen based on growth curves to ensure linear cell growth. After 4 days of incubation 50 μl CellTiterGLO reagent (Promega) were added to each well and luminescence was measured on the Envision after 10 min of incubation at room temperature.

The target in experiment [3] is T1, full-length MALT1 protein (Strep-MALT1(1-824)-His) (Homo sapiens, UniProt Q9UDY8).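 Also: fluorogenic LRSR-AMC substrate cleavage by MALT1, 50 min compound preincubation then 4 h reaction at RT, 11-point dilution from 30 µM, scaled between enzyme-free and untreated enzyme controls.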
T1 sequence (Q9UDY8 1-824): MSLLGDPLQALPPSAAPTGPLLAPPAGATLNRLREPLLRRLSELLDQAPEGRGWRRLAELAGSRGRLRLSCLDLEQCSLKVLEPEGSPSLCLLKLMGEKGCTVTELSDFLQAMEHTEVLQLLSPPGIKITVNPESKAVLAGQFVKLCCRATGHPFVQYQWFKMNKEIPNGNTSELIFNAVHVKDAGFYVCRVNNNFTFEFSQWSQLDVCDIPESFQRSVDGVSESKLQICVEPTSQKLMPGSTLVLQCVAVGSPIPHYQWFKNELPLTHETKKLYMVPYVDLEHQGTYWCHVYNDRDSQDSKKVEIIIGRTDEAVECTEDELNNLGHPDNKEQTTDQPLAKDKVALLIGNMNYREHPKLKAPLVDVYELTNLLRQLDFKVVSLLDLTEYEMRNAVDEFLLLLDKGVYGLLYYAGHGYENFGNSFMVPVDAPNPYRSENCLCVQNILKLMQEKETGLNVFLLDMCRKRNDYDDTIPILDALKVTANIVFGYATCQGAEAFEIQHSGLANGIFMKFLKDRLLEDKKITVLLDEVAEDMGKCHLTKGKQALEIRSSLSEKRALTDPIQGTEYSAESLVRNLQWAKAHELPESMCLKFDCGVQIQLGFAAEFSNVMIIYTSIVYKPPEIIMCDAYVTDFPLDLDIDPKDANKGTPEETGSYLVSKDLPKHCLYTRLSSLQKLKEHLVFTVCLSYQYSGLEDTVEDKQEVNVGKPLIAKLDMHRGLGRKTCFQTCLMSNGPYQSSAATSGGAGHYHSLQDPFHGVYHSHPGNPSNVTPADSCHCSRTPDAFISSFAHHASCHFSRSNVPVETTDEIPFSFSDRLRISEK
The experiment in a line: biochemical.

The test system of experiment [4] is Secretion of IL10 by OCI-LY3 ABC-DLBCL cells. Nature of the experiment: Human IL10 Mesoscale assay (OCI-LY3). The class given is cell-based. To be noted: read-out: Human IL10 Mesoscale assay (OCI-LY3). In outline:
(§1)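 TMD8 or OCI-LY3 ABC-DLBCL cells incubated with compound 24 h at 37° C without beta-mercaptoethanol. Secreted IL6 and IL10 in supernatant quantified by MSD electrochemiluminescence immunoassay; DMSO wells define maximum signal.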

For experiment [5], the system named is Secretion of IL6 by OCI-LY3 ABC-DLBCL cells. The experiment in a line: Human IL6 Mesoscale assay (OCI-LY3). Type of experiment: cell-based. The note with it: read-out: Human IL6 Mesoscale assay (OCI-LY3). The procedure, abridged: as §1
Setting [6] is: 96 h, 10,000 OCI-Ly3 cells per well, 4 days, CellTiterGLO.
[7] abbreviates: OCI-LY3 cells, 24 h incubation, supernatant, MSD V-Plex.

For the compound `Cc1cccnc1-n1ncc(C(=O)Nc2cnc(-n3nccn3)c(Cl)c2)c1C(F)(F)F` [Cpd 3, N-(5-Chloro-6-(2H-1,2,3-triazol-2-yl)pyridin-3-yl)-1-(3-methylpyridin-2-yl)-5-(trifluoromethyl)-1H-pyrazole-4-carboxamide], the pIC50 in experiment [1] was 6.08; in experiment [2] (setting [6]), 5.61; in experiment [3] it was 6.55.
The matching figures for `O=C(Nc1cnc(-n2nccn2)c(Cl)c1)c1cnn(-c2ccncc2)c1C(F)(F)F` [Cpd 4, N-(5-Chloro-6-(2H-1,2,3-triazol-2-yl)pyridin-3-yl)-1-(pyridin-4-yl)-5-(trifluoromethyl)-1H-pyrazole-4-carboxamide]: 6.03, 5.98 and 6.55.
As for `O=C(Nc1cnc(-n2nccn2)c(Cl)c1)c1cnn(-c2cccc3c2OC(F)(F)O3)c1C(F)(F)F` [Cpd 58, N-(5-chloro-6-(2H-1,2,3-triazol-2-yl)pyridin-3-yl)-1-(2,2-difluorobenzo[d][1,3]dioxol-4-yl)-5-(trifluoromethyl)-1H-pyrazole-4-carboxamide], the pIC50 in experiment [4] (setting [7]) was 6.71; in experiment [5] (setting [7]), 6.39; in experiment [2] (setting [6]), 5.14; in experiment [3] it was 6.84.
For `N#Cc1cc(NC(=O)c2cnn(-c3ccc(F)c(F)c3Cl)c2C(F)(F)F)cnc1-n1nccn1` [Cpd 60, 1-(2-chloro-3,4-difluorophenyl)-N-(5-cyano-6-(2H-1,2,3-triazol-2-yl)pyridin-3-yl)-5-(trifluoromethyl)-1H-pyrazole-4-carboxamide] the same measures were 6.82, 6.75, 6.13 and 7.15.
The matching figures for `Nc1nc(-n2ncc(C(=O)Nc3cnc(-n4nccn4)c(Cl)c3)c2C(F)(F)F)ccc1F` [Cpd 62, 1-(6-amino-5-fluoropyridin-2-yl)-N-(5-chloro-6-(2H-1,2,3-triazol-2-yl)pyridin-3-yl)-5-(trifluoromethyl)-1H-pyrazole-4-carboxamide]: 6.37, 6.42, 6.04 and 7.35.
For `N#Cc1cc(NC(=O)c2cnn(-c3ccc(F)c(N)n3)c2C(F)(F)F)cnc1-n1nccn1` [Cpd 63, 1-(6-amino-5-fluoropyridin-2-yl)-N-(5-cyano-6-(2H-1,2,3-triazol-2-yl)pyridin-3-yl)-5-(trifluoromethyl)-1H-pyrazole-4-carboxamide] the same measures were 7.31, 7.16, 5.60 and 7.62.
Consider `COc1cc(F)ccc1-n1ncc(C(=O)Nc2cnc(-n3nccn3)c(Cl)c2)c1C(F)(F)F` [Cpd 81, N-(5-chloro-6-(2H-1,2,3-triazol-2-yl)pyridin-3-yl)-1-(4-fluoro-2-methoxyphenyl)-5-(trifluoromethyl)-1H-pyrazole-4-carboxamide], for which the pIC50 in experiment [4] (setting [7]) was 6.86; in experiment [5] (setting [7]), 6.86; in experiment [2] (setting [6]), 5.90; in experiment [3], 6.79.
As for `N#Cc1cc(NC(=O)c2cnn(-c3c(F)cccc3Cl)c2C(F)(F)F)cnc1-n1nccn1` [Cpd 98, 1-(2-chloro-6-fluorophenyl)-N-(5-cyano-6-(2H-1,2,3-triazol-2-yl)pyridin-3-yl)-5-(trifluoromethyl)-1H-pyrazole-4-carboxamide], the pIC50 is 6.78 in experiment [4] (setting [7]), 6.72 in experiment [5] (setting [7]), 6.36 in experiment [2] (setting [6]) and 6.58 in experiment [3].
Regarding `N#Cc1cc(NC(=O)c2cnn(-c3c(F)cc(F)cc3Cl)c2C(F)(F)F)cnc1-n1nccn1` [Cpd 99, 1-(2-chloro-4,6-difluorophenyl)-N-(5-cyano-6-(2H-1,2,3-triazol-2-yl)pyridin-3-yl)-5-(trifluoromethyl)-1H-pyrazole-4-carboxamide], the pIC50 in experiment [4] (OCI-Ly3, 24 h) was 6.76; in experiment [5] (OCI-Ly3, 24 h), 6.83; in experiment [2] (OCI-Ly3, 96 h) it was 6.49; in experiment [3], 6.77.
Take `N#Cc1cc(NC(=O)c2cnn(-c3ccccc3C3CC3)c2C(F)(F)F)cnc1-n1nccn1` [Cpd 100, N-(5-cyano-6-(2H-1,2,3-triazol-2-yl)pyridin-3-yl)-1-(2-cyclopropylphenyl)-5-(trifluoromethyl)-1H-pyrazole-4-carboxamide]: the pIC50 was 7.03 in experiment [4] (setting [7]), 6.89 in experiment [5] (setting [7]), 6.57 in experiment [2] (setting [6]) and 6.77 in experiment [3].
The matching figures for `Cc1cccc(F)c1-n1ncc(C(=O)Nc2cnc(-n3nccn3)c(C#N)c2)c1C(F)(F)F` [Cpd 101, N-(5-cyano-6-(2H-1,2,3-triazol-2-yl)pyridin-3-yl)-1-(2-fluoro-6-methylphenyl)-5-(trifluoromethyl)-1H-pyrazole-4-carboxamide]: 6.92, 6.78, 6.32 and 6.82.
Consider `Cc1ccc(F)cc1-n1ncc(C(=O)Nc2cnc(-n3nccn3)c(C#N)c2)c1C(F)(F)F` [Cpd 103, N-(5-cyano-6-(2H-1,2,3-triazol-2-yl)pyridin-3-yl)-1-(5-fluoro-2-methylphenyl)-5-(trifluoromethyl)-1H-pyrazole-4-carboxamide], for which the pIC50 is 6.85 in experiment [4] (OCI-Ly3, 24 h); 6.89 in experiment [5] (OCI-Ly3, 24 h); 6.56 in experiment [2] (OCI-Ly3, 96 h); 6.83 in experiment [3].
Regarding `N#Cc1cc(NC(=O)c2cnn(-c3ccc(F)cc3F)c2C(F)(F)F)cnc1-n1nccn1` [Cpd 111, N-(5-cyano-6-(2H-1,2,3-triazol-2-yl)pyridin-3-yl)-1-(2,4-difluorophenyl)-5-(trifluoromethyl)-1H-pyrazole-4-carboxamide], the pIC50 is 7.20 in experiment [4] (setting [7]), 7.15 in experiment [5] (setting [7]), 5.74 in experiment [2] (setting [6]) and 6.95 in experiment [3].
On to `Cc1nc(-n2ncc(C(=O)Nc3cnc(-n4nccn4)c(C#N)c3)c2C(F)(F)F)ccc1F` [Cpd 160, N-(5-cyano-6-(2H-1,2,3-triazol-2-yl)pyridin-3-yl)-1-(5-fluoro-6-methylpyridin-2-yl)-5-(trifluoromethyl)-1H-pyrazole-4-carboxamide], for which the pIC50 in experiment [4] (setting [7]) was 6.34; in experiment [5] (setting [7]) it was 6.19; in experiment [2] (setting [6]), 6.31; in experiment [3] it was 6.54.
